Measurements published in US10765114B2, “4-amino-6-(pyridyl and 2-substitutedphenyl)-picolinates and 6-amino-2-(pyridyl and 2-substitutedphenyl)-pyrimidine-4-carboxylates and their use as herbicides” (Dow AgroSciences LLC, priority 2013, dated 2020).

Tested on: Key Broadleaf Weed and Crop Species
Test: Post-Emergent Test II (Table 5)
Format: in vivo
Conditions: Abutilon theophrasti, post-emergence, 336 h, ABUTH: velvetleaf (Abutilon theophrasti), application rate 70 (kg ai/ha; footnote: g ai/ha), read-out: Visual Growth Reduction (%) 14 Days After Application ABUTH
Method in brief: (§1)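 Visual injury ratings (0 = no injury, 100 = complete kill) taken 14 days after treatment, relative to untreated controls. Compounds, in an acetone/DMSO aqueous carrier with crop oil and surfactant, were applied by track sprayer at 187 L/ha, in a twofold dilution series from the top rate, to plants at the first to second true-leaf stage.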

Structure (SMILES) | pest or weed control at 70 g/ha
COC(=O)c1nc(-c2ccc(Cl)c(Cl)c2C)cc(N)c1Cl [Compound 77] | 95 to 100%

Same assay, conditions: Abutilon theophrasti, post-emergence, 336 h, ABUTH: velvetleaf (Abutilon theophrasti), application rate 140 (kg ai/ha; footnote: g ai/ha), read-out: Visual Growth Reduction (%) 14 Days After Application ABUTH

Structure (SMILES) | pest or weed control at 140 g/ha
COC(=O)c1nc(-c2ccc(Cl)c(Cl)c2C)cc(N)c1Cl [Compound 77] | 95 to 100%

Same assay, conditions: Amaranthus retroflexus, post-emergence, 336 h, AMARE: redroot pigweed (Amaranthus retroflexus), application rate 70 (kg ai/ha; footnote: g ai/ha), read-out: Visual Growth Reduction (%) 14 Days After Application AMARE

Structure (SMILES) | pest or weed control at 70 g/ha
COC(=O)c1nc(-c2ccc(Cl)c(Cl)c2C)cc(N)c1Cl [Compound 77] | 95 to 100%

Same assay, conditions: Amaranthus retroflexus, post-emergence, 336 h, AMARE: redroot pigweed (Amaranthus retroflexus), application rate 140 (kg ai/ha; footnote: g ai/ha), read-out: Visual Growth Reduction (%) 14 Days After Application AMARE

Structure (SMILES) | pest or weed control at 140 g/ha
COC(=O)c1nc(-c2ccc(Cl)c(Cl)c2C)cc(N)c1Cl [Compound 77] | 95 to 100%

Same assay, conditions: Brassica napus, post-emergence, 336 h, BRSSS: oilseed rape, canola (Brassica napus), application rate 70 (kg ai/ha; footnote: g ai/ha), read-out: Visual Growth Reduction (%) 14 Days After Application BRSSS

Structure (SMILES) | pest or weed control at 70 g/ha
COC(=O)c1nc(-c2ccc(Cl)c(Cl)c2C)cc(N)c1Cl [Compound 77] | 95 to 100%

Same assay, conditions: Brassica napus, post-emergence, 336 h, BRSSS: oilseed rape, canola (Brassica napus), application rate 140 (kg ai/ha; footnote: g ai/ha), read-out: Visual Growth Reduction (%) 14 Days After Application BRSSS

Structure (SMILES) | pest or weed control at 140 g/ha
COC(=O)c1nc(-c2ccc(Cl)c(Cl)c2C)cc(N)c1Cl [Compound 77] | 95 to 100%

Same assay, conditions: Chenopodium album, post-emergence, 336 h, CHEAL: lambsquarters (Chenopodium album), application rate 70 (kg ai/ha; footnote: g ai/ha), read-out: Visual Growth Reduction (%) 14 Days After Application CHEAL

Structure (SMILES) | pest or weed control at 70 g/ha
COC(=O)c1nc(-c2ccc(Cl)c(Cl)c2C)cc(N)c1Cl [Compound 77] | 95 to 100%

Same assay, conditions: Chenopodium album, post-emergence, 336 h, CHEAL: lambsquarters (Chenopodium album), application rate 140 (kg ai/ha; footnote: g ai/ha), read-out: Visual Growth Reduction (%) 14 Days After Application CHEAL

Structure (SMILES) | pest or weed control at 140 g/ha
COC(=O)c1nc(-c2ccc(Cl)c(Cl)c2C)cc(N)c1Cl [Compound 77] | 95 to 100%

Same assay, conditions: Euphorbia heterophylla, post-emergence, 336 h, EPHHL: wild poinsettia (Euphorbia heterophylla), application rate 70 (kg ai/ha; footnote: g ai/ha), read-out: Visual Growth Reduction (%) 14 Days After Application EPHHL

Structure (SMILES) | pest or weed control at 70 g/ha
COC(=O)c1nc(-c2ccc(Cl)c(Cl)c2C)cc(N)c1Cl [Compound 77] | 0 to 29%

Same assay, conditions: Euphorbia heterophylla, post-emergence, 336 h, EPHHL: wild poinsettia (Euphorbia heterophylla), application rate 140 (kg ai/ha; footnote: g ai/ha), read-out: Visual Growth Reduction (%) 14 Days After Application EPHHL

Structure (SMILES) | pest or weed control at 140 g/ha
COC(=O)c1nc(-c2ccc(Cl)c(Cl)c2C)cc(N)c1Cl [Compound 77] | 0 to 29%

Same assay, conditions: Helianthus annuus, post-emergence, 336 h, HELAN: sunflower (Helianthus annuus), application rate 70 (kg ai/ha; footnote: g ai/ha), read-out: Visual Growth Reduction (%) 14 Days After Application HELAN

Structure (SMILES) | pest or weed control at 70 g/ha
COC(=O)c1nc(-c2ccc(Cl)c(Cl)c2C)cc(N)c1Cl [Compound 77] | 45 to 59%

Same assay, conditions: Helianthus annuus, post-emergence, 336 h, HELAN: sunflower (Helianthus annuus), application rate 140 (kg ai/ha; footnote: g ai/ha), read-out: Visual Growth Reduction (%) 14 Days After Application HELAN

Structure (SMILES) | pest or weed control at 140 g/ha
COC(=O)c1nc(-c2ccc(Cl)c(Cl)c2C)cc(N)c1Cl [Compound 77] | 60 to 74%

Same assay, conditions: Viola tricolor, post-emergence, 336 h, VIOTR: wild pansy (Viola tricolor), application rate 70 (kg ai/ha; footnote: g ai/ha), read-out: Visual Growth Reduction (%) 14 Days After Application VIOTR

Structure (SMILES) | pest or weed control at 70 g/ha
COC(=O)c1nc(-c2ccc(Cl)c(Cl)c2C)cc(N)c1Cl [Compound 77] | 0 to 29%

Same assay, conditions: Viola tricolor, post-emergence, 336 h, VIOTR: wild pansy (Viola tricolor), application rate 140 (kg ai/ha; footnote: g ai/ha), read-out: Visual Growth Reduction (%) 14 Days After Application VIOTR

Structure (SMILES) | pest or weed control at 140 g/ha
COC(=O)c1nc(-c2ccc(Cl)c(Cl)c2C)cc(N)c1Cl [Compound 77] | 0 to 29%

Tested on: not given
Test: not given
Conditions: not given

melting point | Structure (SMILES)
136 to 142 °C | COC(=O)c1nc(-c2ccc(Cl)c(Cl)c2C)cc(N)c1Cl [Compound 77]

Tested on: Key Grass and Sedge Weeds as well as Grass Crops
Test: Post-Emergent Test II (Table 6)
Format: in vivo
Conditions: post-emergence, 336 h, CYPSS, 70 g ai/ha, 14 days after application, read-out: Visual Growth Reduction (%) 14 Days After Application CYPSS
Method in brief: as §1

Structure (SMILES) | pest or weed control at 70 g/ha
COC(=O)c1nc(-c2ccc(Cl)c(Cl)c2C)cc(N)c1Cl [Compound 77] | 0 to 29%

Same assay, conditions: post-emergence, 336 h, CYPSS, 140 g ai/ha, 14 days after application, read-out: Visual Growth Reduction (%) 14 Days After Application CYPSS

Structure (SMILES) | pest or weed control at 140 g/ha
COC(=O)c1nc(-c2ccc(Cl)c(Cl)c2C)cc(N)c1Cl [Compound 77] | 0 to 29%

Same assay, conditions: post-emergence, 336 h, DIGSA: crabgrass (Digitaria sanguinalis), 70 g ai/ha, 14 days after application, read-out: Visual Growth Reduction (%) 14 Days After Application DIGSA

Structure (SMILES) | pest or weed control at 70 g/ha
COC(=O)c1nc(-c2ccc(Cl)c(Cl)c2C)cc(N)c1Cl [Compound 77] | 0 to 29%

Same assay, conditions: post-emergence, 336 h, DIGSA: crabgrass (Digitaria sanguinalis), 140 g ai/ha, 14 days after application, read-out: Visual Growth Reduction (%) 14 Days After Application DIGSA

Structure (SMILES) | pest or weed control at 140 g/ha
COC(=O)c1nc(-c2ccc(Cl)c(Cl)c2C)cc(N)c1Cl [Compound 77] | 0 to 29%

Same assay, conditions: post-emergence, 336 h, ECHSS, 70 g ai/ha, 14 days after application, read-out: Visual Growth Reduction (%) 14 Days After Application ECHSS

Structure (SMILES) | pest or weed control at 70 g/ha
COC(=O)c1nc(-c2ccc(Cl)c(Cl)c2C)cc(N)c1Cl [Compound 77] | 0 to 29%

Same assay, conditions: post-emergence, 336 h, ECHSS, 140 g ai/ha, 14 days after application, read-out: Visual Growth Reduction (%) 14 Days After Application ECHSS

Structure (SMILES) | pest or weed control at 140 g/ha
COC(=O)c1nc(-c2ccc(Cl)c(Cl)c2C)cc(N)c1Cl [Compound 77] | 0 to 29%

Same assay, conditions: post-emergence, 336 h, ORYSS (crop), 70 g ai/ha, 14 days after application, read-out: Visual Growth Reduction (%) 14 Days After Application ORYSS

Structure (SMILES) | pest or weed control at 70 g/ha
COC(=O)c1nc(-c2ccc(Cl)c(Cl)c2C)cc(N)c1Cl [Compound 77] | 0 to 29%

Same assay, conditions: post-emergence, 336 h, ORYSS (crop), 140 g ai/ha, 14 days after application, read-out: Visual Growth Reduction (%) 14 Days After Application ORYSS

Structure (SMILES) | pest or weed control at 140 g/ha
COC(=O)c1nc(-c2ccc(Cl)c(Cl)c2C)cc(N)c1Cl [Compound 77] | 0 to 29%

Same assay, conditions: post-emergence, 336 h, SETFA: giant foxtail (Setaria faberi), 70 g ai/ha, 14 days after application, read-out: Visual Growth Reduction (%) 14 Days After Application SETFA

Structure (SMILES) | pest or weed control at 70 g/ha
COC(=O)c1nc(-c2ccc(Cl)c(Cl)c2C)cc(N)c1Cl [Compound 77] | 0 to 29%

Same assay, conditions: post-emergence, 336 h, SETFA: giant foxtail (Setaria faberi), 140 g ai/ha, 14 days after application, read-out: Visual Growth Reduction (%) 14 Days After Application SETFA

Structure (SMILES) | pest or weed control at 140 g/ha
COC(=O)c1nc(-c2ccc(Cl)c(Cl)c2C)cc(N)c1Cl [Compound 77] | 0 to 29%

Same assay, conditions: post-emergence, 336 h, SORVU: grain sorghum (Sorghum vulgare), 70 g ai/ha, 14 days after application, read-out: Visual Growth Reduction (%) 14 Days After Application SORVU

Structure (SMILES) | pest or weed control at 70 g/ha
COC(=O)c1nc(-c2ccc(Cl)c(Cl)c2C)cc(N)c1Cl [Compound 77] | 0 to 29%

Same assay, conditions: post-emergence, 336 h, SORVU: grain sorghum (Sorghum vulgare), 140 g ai/ha, 14 days after application, read-out: Visual Growth Reduction (%) 14 Days After Application SORVU

Structure (SMILES) | pest or weed control at 140 g/ha
COC(=O)c1nc(-c2ccc(Cl)c(Cl)c2C)cc(N)c1Cl [Compound 77] | 0 to 29%

Same assay, conditions: post-emergence, 336 h, TRZSS (crop), 70 g ai/ha, 14 days after application, read-out: Visual Growth Reduction (%) 14 Days After Application TRZSS

Structure (SMILES) | pest or weed control at 70 g/ha
COC(=O)c1nc(-c2ccc(Cl)c(Cl)c2C)cc(N)c1Cl [Compound 77] | 0 to 29%

Same assay, conditions: post-emergence, 336 h, TRZSS (crop), 140 g ai/ha, 14 days after application, read-out: Visual Growth Reduction (%) 14 Days After Application TRZSS

Structure (SMILES) | pest or weed control at 140 g/ha
COC(=O)c1nc(-c2ccc(Cl)c(Cl)c2C)cc(N)c1Cl [Compound 77] | 0 to 29%

Same assay, conditions: post-emergence, 336 h, ZEAMX: maize, corn (Zea mays), 70 g ai/ha, 14 days after application, read-out: Visual Growth Reduction (%) 14 Days After Application ZEAMX

Structure (SMILES) | pest or weed control at 70 g/ha
COC(=O)c1nc(-c2ccc(Cl)c(Cl)c2C)cc(N)c1Cl [Compound 77] | 0 to 29%

Same assay, conditions: post-emergence, 336 h, ZEAMX: maize, corn (Zea mays), 140 g ai/ha, 14 days after application, read-out: Visual Growth Reduction (%) 14 Days After Application ZEAMX

Structure (SMILES) | pest or weed control at 140 g/ha
COC(=O)c1nc(-c2ccc(Cl)c(Cl)c2C)cc(N)c1Cl [Compound 77] | 0 to 29%
